Laboratory results published in patent US20120082658A1, “Methods for the Treatment of Allergic Diseases” (VentiRx Pharmaceuticals, Inc., priority 2010, published 2012).
Read-outs that look alike come from different tables or passages of the source.

Tested on: human peripheral blood mononuclear cells (PBMCs)
Assay: Cytokine production in isolated human PBMCs
Type: cell-based
Settings: for EC50: Homo sapiens, PBMC
Method: Preclinical studies were performed with VTX-378, the active pharmaceutical ingredient in VTX-1463. The specificity of VTX-378 for human TLR8 relative to other TLRs was assessed in transfected Human Embryonic Kidney 293 (HEK293) cells engineered to express individual TLRs (2-9) via transfection, and assessed using an NF-κB driven reporter system. […] The pharmacologic effects of VTX-378 were characterized in vitro using isolated human peripheral blood mononuclear cells (PBMCs).

CC(C)Cn1cnc2c(N)nc3ccccc3c21 [Imiquimod, imiquimod, reference compound]
EC50 (analyte IL-10, read-out: EC50, IL-10 production): 17 µM | EC50 (analyte IL-12p40, read-out: EC50, IL-12p40 production): 0.27 µM | Mean Mediator Level ± SEM, IL-10 (Imiquimod 25 uM): 59 ± 24 pg/mL | Mean Mediator Level ± SEM, IL-12p40 (Imiquimod 25 uM): 10.2 ± 3.5 pg/mL | Mean Mediator Level ± SEM, IL-12p70 (Imiquimod 25 uM): 0.6 ± 0.6 pg/mL
